From patent US20240246931A1, “COMPOUNDS AS PD1/PD-L1 INHIBITORS AND METHODS THEREOF” (JUBILANT PRODEL LLC, priority 2021, published 2024)
Read-outs that look alike come from different tables or passages of the source.

Legend:
PD-1/PD-L1 interaction = target: T1, PD-1/PD-L1 interaction (Homo sapiens, UniProt Q9NZQ7); assay: PD-1/PD-L1 HTRF binding assay (CisBio kit); conditions: HTRF PD1/PD-L1 inhibition assay
T1 construct: purchased CisBio 63ADK000CPAPEG
Summary of the method: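 HTRF kit assay: compound was preincubated 15 min with tagged PD-L1 and PD-1 proteins, then Eu-cryptate and XL665 anti-tag antibodies were added for 1 h at room temperature. Readout was the 665/620 nm ratio ×10^4. IC50 was binned as A <100 nM, B 100–500 nM, C >500 nM.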

[1] = Metabolic stability in human liver microsomes; assay type: in vitro ADME; conditions: human liver microsomes 1.0 mg/mL, compound 1 μM, NADPH, first number of HLM/MLM cell
From the text: (§1) Metabolic Stability in Liver Microsomes
(§2) The purpose of this experiment is to measure the metabolic half-life of NCEs in sub-cellular fractions such as human liver microsomes (HLM) or mouse liver microsomes (MLM). This provides an in vitro means to calculate intrinsic hepatic clearance, and to support the prediction of human pharmacokinetics. This approach has been successfully utilized at early phase of drug discovery projects, to provide SAR input for reducing metabolic instability and for predicting in vivo hepatic clearance.
(§3) Procedure: Potassium phosphate buffer (66.7 mM, pH 7.4) containing liver microsomes (mouse and human) (1.0 mg/mL) was pre-incubated separately with compound (1 μM) and positive control (verapamil, 1 μM) in a 37° C. water bath for 5 min. The reactions were initiated by adding 20 μL of 10 mM NADPH. Reactions without NADPH (0 and 30 min) were also incubated to rule out non-NADPH metabolism or chemical instability in the incubation buffer. All reactions were terminated using 200 μL of ice-cold acetonitrile containing internal standard at 0, 5, 15 and 30 min. The vials were centrifuged at 3000 rpm for 15 min. The supernatants thus obtained were analyzed on LC-MS/MS to monitor the disappearance of test compound.

[2] = Metabolic stability in mouse liver microsomes; assay type: in vitro ADME; conditions: mouse liver microsomes 1.0 mg/mL, compound 1 μM, NADPH, second number of HLM/MLM cell
From the text: as §1, §2, §3

[3] = Brain exposure study in mice by IV route; assay type: in vivo; conditions: male, Balb/c, mouse; for Kp at 0.5 h: brain/plasma, read-out: Brain/Plasma ratio
From the text: Institutional Animal Ethical Committee (IAEC) of Jubilant Biosys (IAEC/JDC/2019/188R (for Mice) and IAEC/JDC/2019/189R (for Rat) nominated by CPCSEA (Committee for the Purpose of Control and Supervision of Experiments on Animals) approved the mice and rat pharmacokinetic experiments. Male Balb/c mice (˜6-8 weeks old with body weight range of 22-25 g) and male SD rats (6-8 weeks old with body weight range of 200-250 g) were procured from Vivo Biotech, Hyderabad, India. Animals were quarantined in Jubilant Biosys Animal House for a period of 7 days with a 12:12 h light: dark cycles, and prior to the study the animals were stratified as per body weight.
Procedure for Mice: Intravenous pharmacokinetics study was done at doses of 5, 10 mg/kg respectively at dose volume 5 mL/kg for IV route. Sparse sampling was done and at each time point three mice were used for blood sampling (˜100 μL) were collected from retro-orbital plexus at 0.083 (Only for IV) and 24 h. Blood samples collected in tubes containing K2 EDTA as anticoagulant and centrifuged for 5 min at 10,000 rpm in a refrigerated centrifuge (Biofuge, Heraeus, Germany) maintained at 4° C. for plasma separation. Group I (IV) received compound by intravenously by tail vein at […] in solution formulation. Blood concentration-time data of compound was analyzed by non-compartmental method using Phoenix WinNonlin Version 8.1.
Brain Exposure Study in Mice
The mice were placed in isoflurane anesthesia chamber; following complete anesthesia (3-5% isoflurane) blood sample (0.5 mL) was collected from retro-orbital plexus using mice capillary.
The mice were sacrificed by cervical dislocation. The dorsal surface of the skull was peeled away from the brain using bone cutter, dura matter was gently removed from surface of brain with help of forceps. Brain was gently taken out away from the head and placed in PBS buffer to remove blood. Brain was placed on blotting paper to remove the blood spots and transferred in pre-labelled tube. The isolated brain was weighed and homogenised using 5× volume of phosphate buffer saline (pH-7.4). During homogenization the brain homogenate was kept in ice till sample processing. The homogenate was processed by specified extraction process and analyzed by LC-MS/MS.
Evaluation of Brain Exposure Data by IV Route

T1 sequence (Q9NZQ7 19-238 limits assumed): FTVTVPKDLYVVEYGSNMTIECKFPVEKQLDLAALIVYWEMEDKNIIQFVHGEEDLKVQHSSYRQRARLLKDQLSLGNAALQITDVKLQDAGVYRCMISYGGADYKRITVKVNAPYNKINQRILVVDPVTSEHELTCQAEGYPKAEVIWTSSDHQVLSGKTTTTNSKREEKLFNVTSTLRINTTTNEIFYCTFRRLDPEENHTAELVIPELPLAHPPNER

| concentration at 0.5 h ([3]; brain, 10 mg/kg, 10 mpk, read-out: Brain (ng/g) Mean) [ng/g] | Kp at 0.5 h ([3]; 10 mg/kg, 10 mpk) | concentration at 0.5 h ([3]; plasma, 10 mg/kg, 10 mpk, read-out: Plasma (ng/mL) Mean) [ng/mL] | SMILES | IC50 (PD-1/PD-L1 interaction) [nM] | HLM % remaining @ 30 min [1] [%] | MLM % remaining @ 30 min [2] [%] | concentration at 0.5 h ([3]; brain, 5 mg/kg, 5 mpk, read-out: Brain (ng/g) Mean) [ng/g] | Kp at 0.5 h ([3]; 5 mg/kg, 5 mpk) | concentration at 0.5 h ([3]; plasma, 5 mg/kg, 5 mpk, read-out: Plasma (ng/mL) Mean) [ng/mL] |
| --- | --- | --- | --- | --- | --- | --- | --- | --- | --- |
| 11600 | 12.2 | 949 | Cc1c(COc2cc(OCCF)c(CN3CCCC[C@H]3CO)c3c2CCC3)cccc1-c1ccccc1 [Example 27, (S)-(1-((5-(2-fluoroethoxy)-7-((2-methyl-[1,1′-biphenyl]-3-yl)methoxy)-2,3-dihydro-1H-inden-4-yl)methyl)piperidin-2-yl)methanol] | < 100 | 91 | 84 |  |  |  |
|  |  |  | Cc1c(COc2cc(OCCCCF)c(CN3CCCC[C@H]3CO)c3c2CCC3)cccc1-c1ccccc1 [Example 31, (S)-(1-((5-(4-fluorobutoxy)-7-((2-methyl-[1,1′-biphenyl]-3-yl)methoxy)-2,3-dihydro-1H-inden-4-yl)methyl)piperidin-2-yl)methanol] | < 100 | 65 | 79 | 2450 | 4.9 | 501 |
